Reference: US20100119529A1, “ELASTIN-LIKE POLYMER DELIVERY VEHICLES” (priority 2006, published 2010)

Key:
[1] = tested on: MCF-7 human breast cancer cells; experiment: Cytotoxicity test, XTT assay; assay type: cell-based; set-up: Average (XTT metabolic signal): unit not given here; conditions: for IC50: 74 hr incubation, XTT
Description: MCF-7 human breast cancer cells (ATCC HTB-22) were plated in 96-well plates at an initial density of 5000 cells per well in 90 μL of RMPI 1640 supplemented with 10% fetal bovine serum, 100 IU penicillin, and 100 μg/mL streptomycin, 2 mM L-glutamine, and maintained at 37° C. and 5% CO2 atmosphere. After 24 hr, stock solutions of 17-GAOH in DMSO and GA-(VKG)8ELP1-120 were diluted 10-fold with growth media and added to wells (6 wells) as […] (1% v/v final DMSO concentration). The cells were incubated with the compounds for 74 hr and the metabolic rate was determined using an XTT™ assay kit (Sigma) according to the manufacturer's instructions. The concentrations inhibiting cell growth by 50% (IC50) were determined by fixed Hill slope regression with SIGMA PLOT™ 2004 (Systat Software, Inc.).

mouse mammary tumors = conditions: 43° C. hyperthermia; cited from earlier work

Which results are given for `CO[C@H]1/C=C\C=C(/C)C(=O)NC2=CC(=O)C(NCCO)=C(C[C@@H](C)C[C@H](OC)[C@H](O)[C@@H](C)/C=C(\C)[C@@H]1OC(N)=O)C2=O` [17-HEA-DMGA, 17-β-hydroxyethylamino-17-demethoxygeldanamycin]?
IC50 ([1]; test 1): 855 nM; Average (XTT metabolic signal) ([1]; test 1, final concentration 0.1 nM): 1158; Average (XTT metabolic signal) ([1]; test 1, final concentration 1 nM): 1288; Average (XTT metabolic signal) ([1]; test 1, final concentration 10 nM): 1274; Average (XTT metabolic signal) ([1]; test 1, final concentration 100 nM): 1588; Average (XTT metabolic signal) ([1]; test 1, final concentration 1,000 nM): 344; Average (XTT metabolic signal) ([1]; test 1, final concentration 10,000 nM): 114; IC50 ([1]; test 2): 731 nM; Average (XTT metabolic signal) ([1]; test 2, final concentration 50 nM): 788.5; Average (XTT metabolic signal) ([1]; test 2, final concentration 100 nM): 999.7; Average (XTT metabolic signal) ([1]; test 2, final concentration 250 nM): 774.3; Average (XTT metabolic signal) ([1]; test 2, final concentration 500 nM): 515.0; Average (XTT metabolic signal) ([1]; test 2, final concentration 1,000 nM): 297.5; Average (XTT metabolic signal) ([1]; test 2, final concentration 2,000 nM): 46.9

For `N.N.[Cl][Pt][Cl]` [Cisplatin], which “increase of thermal enhancement ratio (TER)” value (mouse mammary tumors) is on record?
The value was 1.4-5.0 fold.
